Reference: ChEMBL document CHEMBL3227933, “Synthesis and preliminary biological studies of 4- and 5-[2-hydroxy-3-(isopropylamino)propoxy]benzimidazoles: selective beta2 adrenergic blocking agents” (J Med Chem, 1979)

Columns and labels:
Settings in all cases: read-out: pA2 (converted)
[1] = target: T1, Beta-1 adrenergic receptor (Cavia porcellus, UniProt B0FL73); assay: Competitive antagonist activity at beta-1 adrenergic receptor in guinea pig assessed as inhibition of isoproterenol-induced atrial beat rate; design: species or system Cardiac atrium
[2] = target: T1, Beta-1 adrenergic receptor; assay: Competitive antagonist activity at beta-1 adrenergic receptor in guinea pig assessed as inhibition of isoproterenol-induced atrial contractile force; design: species or system Cardiac atrium
[3] = target: Beta-2 adrenergic receptor (Cavia porcellus, UniProt Q8K4Z4); assay: Competitive antagonist activity at beta-2 adrenergic receptor in guinea pig assessed as inhibition of isoproterenol-induced tracheal relaxation
Sequence of Beta-2 adrenergic receptor (Q8K4Z4 whole entry): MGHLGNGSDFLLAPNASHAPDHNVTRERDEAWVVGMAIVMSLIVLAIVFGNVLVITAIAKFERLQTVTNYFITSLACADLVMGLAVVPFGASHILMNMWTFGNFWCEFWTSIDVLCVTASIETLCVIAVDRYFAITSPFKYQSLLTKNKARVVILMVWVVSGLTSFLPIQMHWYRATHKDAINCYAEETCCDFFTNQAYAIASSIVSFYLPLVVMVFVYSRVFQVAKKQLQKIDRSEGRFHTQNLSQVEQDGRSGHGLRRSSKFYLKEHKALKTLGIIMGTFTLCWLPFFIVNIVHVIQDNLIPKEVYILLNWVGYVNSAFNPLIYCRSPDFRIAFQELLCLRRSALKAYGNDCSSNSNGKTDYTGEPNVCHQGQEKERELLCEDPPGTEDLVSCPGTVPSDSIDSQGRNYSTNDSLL

T1 sequence (B0FL73 whole entry): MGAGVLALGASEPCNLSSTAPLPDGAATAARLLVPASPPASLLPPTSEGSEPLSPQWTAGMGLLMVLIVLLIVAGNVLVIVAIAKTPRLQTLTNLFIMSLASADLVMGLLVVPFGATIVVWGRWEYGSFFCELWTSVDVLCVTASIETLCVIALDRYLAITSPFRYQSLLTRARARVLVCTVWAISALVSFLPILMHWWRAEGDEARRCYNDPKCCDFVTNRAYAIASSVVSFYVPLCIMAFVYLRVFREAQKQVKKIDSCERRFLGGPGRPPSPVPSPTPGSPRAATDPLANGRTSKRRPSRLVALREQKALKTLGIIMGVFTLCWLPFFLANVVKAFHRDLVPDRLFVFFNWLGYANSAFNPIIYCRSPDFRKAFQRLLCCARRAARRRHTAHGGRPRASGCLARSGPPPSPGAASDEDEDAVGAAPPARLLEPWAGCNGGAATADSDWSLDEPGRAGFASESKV

| Kb [1] | Kb [2] | Kb [3] | SMILES |
| --- | --- | --- | --- |
| 39.8 nM | 30.9 nM | 2.29 nM | CC(C)NCC(O)COc1cccc2[nH]cnc12 (stereo unspecified) |
| 1000 nM | 851 nM | 380 nM | CC(C)NCC(O)COc1ccc2[nH]cnc2c1 (stereo unspecified) |
